# Results: article PMC5293833, “Mycobacterium tuberculosis Prolyl Oligopeptidase Induces In vitro Secretion of Proinflammatory Cytokines by Peritoneal Macrophages” (Frontiers in Microbiology, 2017)
# Starred links: 1 amine or outer side, 2 acyl side, 3 side chain; linkers in the order of their positions; H or OH if unused. Residues, ends and D or L forms follow the SMILES beside them. *: point of attachment. AMC = Cc1cc(=O)oc2cc(N*)ccc12; Suc = O=C(CCC(=O)[*:2])[*:1]
# How the values were obtained:
# Format in all cases: biochemical
# [1] = target: T1, prolyl oligopeptidase (POPMt) (Mycobacterium tuberculosis, UniProt O07178); test: fluorogenic AMC substrate assay, % inhibition at […]; conditions: 1000 µM
# T1 construct: gene Rv0457c
# [2] = target: T1, prolyl oligopeptidase (POPMt)
# [3] = target: T1, prolyl oligopeptidase (POPMt); test: fluorogenic AMC substrate assay, % inhibition at […]
# T1 sequence (O07178 entry or part of it): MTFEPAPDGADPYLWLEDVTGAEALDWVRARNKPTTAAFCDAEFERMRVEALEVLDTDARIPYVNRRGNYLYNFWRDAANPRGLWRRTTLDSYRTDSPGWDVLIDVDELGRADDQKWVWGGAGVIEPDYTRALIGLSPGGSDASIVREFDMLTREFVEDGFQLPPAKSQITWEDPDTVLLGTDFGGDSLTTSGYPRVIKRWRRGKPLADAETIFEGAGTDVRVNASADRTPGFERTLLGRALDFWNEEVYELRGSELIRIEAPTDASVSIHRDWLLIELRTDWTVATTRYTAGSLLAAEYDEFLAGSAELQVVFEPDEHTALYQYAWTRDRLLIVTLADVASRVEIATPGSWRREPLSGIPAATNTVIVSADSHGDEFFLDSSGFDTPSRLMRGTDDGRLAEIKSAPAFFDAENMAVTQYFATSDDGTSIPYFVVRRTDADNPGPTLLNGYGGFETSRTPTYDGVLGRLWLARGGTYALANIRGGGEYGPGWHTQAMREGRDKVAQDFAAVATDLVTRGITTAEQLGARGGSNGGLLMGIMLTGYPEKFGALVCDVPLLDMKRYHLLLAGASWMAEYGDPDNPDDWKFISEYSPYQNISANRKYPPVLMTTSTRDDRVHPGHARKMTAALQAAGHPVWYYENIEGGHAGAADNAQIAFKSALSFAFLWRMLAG
Structure (SMILES),inhibition at 100 µM [3],also measured
NCCc1ccc(S(=O)(=O)F)cc1 [AEBSF],–,Inhibition (%) [1]: 33
Cc1cc(=O)oc2cc(NC(=O)[C@@H]3CCCN3C(=O)CNC(=O)CCC(=O)O)ccc12 [N-Suc-Gly-Pro-AMC] (Suc-Gly-Pro-{AMC}),–,Relative activity (%) [2]: 48 % relative activity
Cc1ccc(S(=O)(=O)N[C@@H](CCCCN)C(=O)CCl)cc1 [TLCK],35%,–
Cc1ccc(S(=O)(=O)N[C@@H](Cc2ccccc2)C(=O)CCl)cc1 [TPCK],66%,–
